Results on 45 molecules are retold here after patent publication US9738610B2, “Indazole derivatives and uses thereof” (Whitehead Institute for Biomedical Research, priority 2012, dated 2017).

One data set concerns the target T1, yeast (Saccharomyces cerevisiae, UniProt P00163).
T1 construct: Mitochondrial membranes were prepared from yeast; endogenous in cells; host or cells: yeast (mitochondrial membranes)
In words: IC50 values and selectivity of Table 10A (target yeast, anti-target human cytochrome). To be noted: for IC50: target is yeast; for Selectivity* (anti-target IC50)/(target IC50): target yeast, anti-target human cytochrome. The data set is classed as biochemical. As for the experimental part: All measurements were performed in triplicate.

Another data set has as its system C. albicans CaCi-2. Put plainly: Secondary single-agent (no-fluconazole) activity assay. To be noted: in the absence of fluconazole; read-out: Target Potency (μM) Mean ± S.E.M CaCi-2^b IC50. The data set is classed as cell-based, Candida albicans. As for the experimental part: Clear, flat-bottom, black, 384-well plates were obtained from Corning. […] Pen/Strep was obtained from Gibco and prepared 100× in PBS. Fluconazole was obtained from Sigma and prepared in 2 mg/ml stock solution in PBS. Alamar Blue was obtained from Biosource International (Catalog No. DAL1100). Phosphate buffered solution (PBS) without calcium and magnesium was obtained from Cellgro.
Fungal inoculum was prepared as follows: 500 μl of yeast was inoculated from cryopreserved stock into a 250-ml shaker flask containing 30 ml growth medium and shaken overnight (16 hours) at 30° C. The culture was spun down, and the broth was poured off and washed with RPMI medium. The culture was spun down again, and the broth was poured off and resuspended in RPMI medium. The OD 600 of 1 ml of fungal culture in a cuvette was read using a standard optical density reader with growth medium as a background blank. The desired volume of fungal inoculum was diluted to starting OD of the fungal inoculum of 0.00015 A600.
Pen/Strep was added to the media to a final 1% concentration. A Combi NL (Thermo) was used to dispense 20 μl/well of assay media into all wells. Geldanamycin (1.5 mM) and fluconazole (0.2 mg/ml) were mixed for the positive control. Then, 80 nl of positive control solution was dispensed into the positive control wells using Thermo Combi nL for a final concentration of 3 μM geldanamycin and 8 μg/ml fluconazole. Then, 100 nl of test compound were pinned from the compound plates into assay plates using a CyBi-Well pin tool. A further 20 μl/well of RPMI synthetic defined medium culture was dispensed into 384-well, black plates. Fungal suspension (20 μl/well) was dispensed into all wells. The plates were incubated in a humidified (90% humidity) Liconic incubator at 37° C. without agitation for 48 hours. Alamar Blue Reagent was diluted 1:40 in Ca/Mg-free PBS. To all plates, 6.4 μl/well of the diluted Alamar Blue was added to the plates to a final dilution factor of 1:200. The plates were incubated for 2 hours at room temperature. Next, RFU of wells was read on a standard plate reader as a measure of relative fungal growth.

The nature of a further data set: Plasma protein binding. To be noted: % bound in human plasma.
The next data set can be described thus: Plasma stability. Particulars: % remaining in human plasma after a 5-hour incubation.
The next data set concerns C. albicans CaCi-8. In words: microbe, parasite or virus in culture. Type of data set: cell-based, Candida albicans. To be noted: in the presence of fluconazole; read-out: Target Potency (μM) Mean ± S.E.M CaCi-8^a IC50. As for the experimental part:
This subset was re-subjected to the primary assay and was also tested concurrently in two secondary assays. Secondary assay 1 measured chemosensitization of the more resistant CaCi-8 strain. Secondary assay 2 eliminated anything with inherently antifungal activity. […] A final assay (secondary assay 3) was incorporated to discard any compound displaying toxicity to mammalian fibroblasts. […] This screening campaign is also illustrated in FIG. 3B.
Those that inhibited growth in the resistant strain were also tested for toxicity against Candida in the absence of fluconazole and for toxicity against mammalian cells using a fluorescence reporter assay. The positive control for screening in the Candida and mammalian cell assays was the Hsp90 inhibitor geldanamycin (acting in concert with fluconazole; FIG. 4). Compounds that passed these four hurdles were binned through use of a Saccharomyces assay to determine whether the mechanism of action might be through the Hsp90 pathway, the calcineurin pathway, or an uncategorized mechanism.

On to `COC(=O)Cn1nc(-c2ccccc2)c2cc(C(F)(F)F)ccc21` [Compound I-83], for which, at yeast, the half-inhibitory concentration (IC50) (usually the point on the concentration scale where inhibition reaches its midpoint) was determined as 40 µM and the “Selectivity* (anti-target IC50)/(target IC50)” value (from here on “Selectivity*”) was 3.

In the case of `COC(=O)Cn1nc(-c2ccc(F)cc2F)c2ccccc21` [Compound I-70], at yeast, inhibition was half-maximal at 0.275 µM (IC50) and the “Selectivity*” value was found to be 58.2.

In turn, `N#Cc1ncccc1-n1nc(-c2ccccc2)c2ccccc21` [Compound I-112] showed an IC50 at yeast above 120 µM.

With `COC(=O)Cn1nc(-c2cc(C(F)(F)F)ccc2F)c2ccccc21` [Compound I-88], at yeast, the half-maximal inhibitory concentration (IC50) was determined as 0.025 µM and the “Selectivity*” value is listed as 200.

Turning to `COC(=O)Cn1nc(-c2cccc(OCCC34CC5CC(CC(C5)C3)C4)c2)c2ccccc21` [Compound I-80], at yeast, the IC50 was determined as 0.0125 µM and the “Selectivity*” value stood at 20.

As to `COC(=O)Cn1nc(-c2c(F)cccc2F)c2ccccc21` [Compound I-128], on yeast, inhibition was half-maximal at 0.5 µM (IC50) and the “Selectivity*” value is listed as 32.

As to `COC(=O)Cn1nc(-c2ccccc2)c2ccc(C(F)(F)F)cc21` [Compound 49835849], the results for the concentration for half-maximal inhibition (IC50) in the data set with C. albicans CaCi-2 and in the data set on C. albicans CaCi-8 were above 26 µM and 32.1 µM, respectively. Further, the “Plasma Protein Binding” value in the data set “Plasma protein binding” is 62%. Also, the “Plasma Stability” value in the data set “Plasma stability” was 1.7%.

Molecule `c1ccc(-c2nn(Cc3ncccn3)c3ccccc23)cc1` [Compound I-123] had an IC50 at yeast above 120 µM.

In the case of `COC(=O)C(C)(C)n1nc(-c2ccccc2)c2ccccc21` [Compound 49835873], the IC50 with C. albicans CaCi-2 and in the data set with C. albicans CaCi-8 was above 26 µM throughout. Also, the “Plasma Protein Binding” value in “Plasma protein binding” is reported as above 99%. For the same molecule, the “Plasma Stability” value in the data set “Plasma stability” is listed as 63%.

Turning to `COC(=O)Cn1nc(-c2ccccc2)c2c(C)cccc21` [Compound I-81], at yeast, the IC50 is 1.25 µM and the “Selectivity*” value was 8.

With `COC(=O)Cn1nc(-c2ccc(C#N)cc2)c2ccccc21` [Compound 49835863], the values for the 50% inhibitory concentration (IC50) in the data set on C. albicans CaCi-2 and in the data set on C. albicans CaCi-8 were above 26 µM and 20 µM, respectively. The “Plasma Protein Binding” value in the data set “Plasma protein binding” came out at 92%. Besides, the “Plasma Stability” value in the data set “Plasma stability” is listed as below 1.0%.

In the case of `Cn1nnnc1Cn1nc(-c2ccccc2)c2ccccc21` [Compound I-91], at yeast, the half-maximal inhibitory concentration (IC50) was above 20 µM.

The molecule `CS(=O)(=O)Cn1nc(-c2ccccc2)c2ccccc21` [Compound I-73] registered an IC50 at yeast above 80 µM.

Consider `CCOC(=O)Cn1nc(-c2ccccc2)c2ccccc21` [Compound 13330959], for which the half-maximal inhibitory concentration (IC50) in the data set with C. albicans CaCi-2 and with C. albicans CaCi-8 was above 26 µM in each case. For the same molecule, the “Plasma Protein Binding” value in the data set “Plasma protein binding” came to 99%. Moreover, the “Plasma Stability” value in the data set “Plasma stability” is listed as 20%.

Regarding `COC(=O)Cn1nc(-c2cccc(OCCN(C)C)c2)c2ccccc21` [Compound I-137], the IC50 at yeast is above 32 µM.

Take `Cc1cccc2c(-c3cc(C(F)(F)F)ccc3F)nn(Cc3cnccn3)c12` [Compound I-126]: on yeast, the midpoint of inhibition, the IC50, lay at 0.094 µM and the “Selectivity*” value stood at 320.

Turning to `COC(=O)Cn1nc(-c2cc(OCCCC3CCCCC3)ccc2F)c2ccccc21` [Compound I-100], on yeast, the IC50 is 0.007 µM and the “Selectivity*” value was determined as 54.

Consider `COC(=O)Cn1nc(-c2ccccc2)c2c(C(F)(F)F)cccc21` [Compound I-89], for which, on yeast, the IC50 amounted to 10 µM and the “Selectivity*” value stood at 3.75.

Turning to `Cn1nncc1Cn1nc(-c2ccccc2)c2ccccc21` [Compound I-95], the concentration for half-maximal inhibition (IC50) against yeast was above 20 µM.

As to `COC(=O)Cn1nc(-c2cccc(OCc3ccccc3)c2C)c2ccccc21` [Compound I-133], on yeast, half-maximal inhibition (IC50) was put at 0.4 µM and the “Selectivity*” value turned out to be 30.

Turning to `Cn1cc(Cn2nc(-c3ccccc3)c3ccccc32)nn1` [Compound I-94], at yeast, the IC50 was 40 µM and the “Selectivity*” value is on record as above 4.

On to `Cn1nnc(Cn2nc(-c3ccccc3)c3ccccc32)n1` [Compound I-90], for which, at yeast, the IC50 worked out at 1.25 µM and the “Selectivity*” value is recorded as 32.

On yeast, `COC(=O)Cn1nc(-c2c(C)cccc2C)c2ccccc21` [Compound I-127] yielded a 50% inhibitory concentration (IC50) above 32 µM.

With `CCN(CC)CCOc1cccc(-c2nn(CC(=O)OC)c3ccccc23)c1` [Compound I-138], the IC50 against yeast is above 32 µM.

Regarding `FC(F)Cn1nc(-c2ccccc2)c2ccccc21` [Compound I-110], the 50% inhibitory concentration (IC50) on yeast was above 120 µM.

`COC(=O)Cn1nc(-c2cccc(C(F)(F)F)c2)c2ccccc21` [Compound I-72]: at yeast, the IC50 was 0.04 µM and the “Selectivity*” value was found to be 200.

For `COC(=O)Cn1nc(-c2cc(F)ccc2F)c2ccccc21` [Compound I-129], on yeast, the concentration for half-maximal inhibition (IC50) came to 0.15 µM and the “Selectivity*” value is listed as 133.

On to `COC(=O)Cn1nc(C)c2ccccc21` [Compound 46856254], for which, in the data set “Plasma protein binding”, the “Plasma Protein Binding” value is 42%. Besides, in the data set “Plasma stability”, the “Plasma Stability” value is 3.0%. In addition, the half-maximal inhibitory concentration (IC50) in the data set on C. albicans CaCi-8 was determined as 21.3 ± 8.1 µM.

Consider `COC(=O)Cn1nc(-c2cccs2)c2ccccc21` [Compound I-76], for which, at yeast, half-maximal inhibition (IC50) required 1.25 µM and the “Selectivity*” value was 32.

On to `Cn1nnc(Cn2nc(-c3cc(C(F)(F)F)ccc3F)c3ccccc32)n1` [Compound I-98], for which, on yeast, the 50% inhibitory concentration (IC50) was determined as 0.063 µM and the “Selectivity*” value stood at 48.

With `COC(=O)Cn1nc(-c2cccc(OCCC3CCCCC3)c2)c2ccccc21` [Compound I-141], at yeast, the midpoint of inhibition, the IC50, lay at 0.0625 µM and the “Selectivity*” value stood at 12.

For `Cc1cccc2c(-c3cc(OCCCC4CCCCC4)ccc3F)nn(Cc3nnn(C)n3)c12` [Compound I-103], at yeast, half-maximal inhibition (IC50) required 0.007 µM and the “Selectivity*” value amounted to 71.

`c1ccc(-c2nn(Cc3ccccn3)c3ccccc23)cc1` [Compound I-114]: at yeast, the IC50 was above 120 µM.

As to `Fc1ccc(C(F)(F)F)cc1-c1nn(Cc2cnccn2)c2ccccc12` [Compound I-125], on yeast, the half-inhibitory concentration (IC50) amounted to 0.059 µM and the “Selectivity*” value was 340.

Turning to `COC(=O)Cn1nc(-c2cc(OCc3ccccc3)ccc2C)c2ccccc21` [Compound I-135], on yeast, the IC50 is 0.8 µM and the “Selectivity*” value is 3.75.

Turning to `Cc1nc(Cn2nc(-c3ccccc3)c3ccccc32)no1` [Compound I-86], at yeast, the concentration for half-maximal inhibition (IC50) worked out at 5 µM and the “Selectivity*” value was above 32.

With `COC(=O)Cn1nc(-c2cccc(F)c2F)c2ccccc21` [Compound I-130], at yeast, the half-maximal inhibitory concentration (IC50) is 0.25 µM and the “Selectivity*” value was 32.

For the molecule `Cc1nnc(Cn2nc(-c3ccccc3)c3ccccc32)o1` [Compound I-84], at yeast, it took 8 µM to reach half-maximal inhibition (IC50) and the “Selectivity*” value is above 32.

Consider `COC(=O)Cn1nc(-c2cccc(OCCN(C(C)C)C(C)C)c2)c2ccccc21` [Compound I-139], for which, at yeast, inhibition was half-maximal at 1 µM (IC50) and the “Selectivity*” value came out at 6.

On to `COC(=O)Cn1nc(-c2cccnc2)c2ccccc21` [Compound I-121], for which the half-maximal inhibitory concentration (IC50) against yeast stood at 15 µM.

In the case of `c1ccc(-c2nn(Cc3c[nH]nn3)c3ccccc23)cc1` [Compound I-93], at yeast, the IC50 amounted to 25 µM and the “Selectivity*” value is given as above 6.

For the molecule `COC(=O)Cn1nc(-c2ccccc2Cl)c2ccccc21` [Compound I-132], at yeast, the half-maximal inhibitory concentration (IC50) was 0.75 µM and the “Selectivity*” value turned out to be 32.

With `COC(=O)Cn1nc(-c2cc(F)ccc2C)c2ccccc21` [Compound I-131], at yeast, 0.4 µM corresponded to half-maximal inhibition (IC50) and the “Selectivity*” value came to 40.

With `COC(=O)Cn1nc(-c2cc(OCCCC3CCCCC3)ccc2F)c2cccc(C)c21` [Compound I-101], at yeast, the half-maximal inhibitory concentration (IC50) is 0.0015 µM and the “Selectivity*” value was found to be 49.

On to `c1ccc(-c2nn(Cc3ncon3)c3ccccc23)cc1` [Compound I-85], for which, on yeast, the half-inhibitory concentration (IC50) was 2 µM and the “Selectivity*” value was 40.
